Measured values published in patent EP3577173B1, “COMPOSITIONS CONTAINING FATTY ACID ESTERS OF VEGETABLE ORIGIN AS SOLVENTS” (Benessere, Vincenzo, priority 2017, dated 2018).

Columns and labels:
[1] = Dissolution time of resin in solvent until the solution is clear (base for coating materials); assay type: physicochemical; settings: magnetic stirring, time when solution becomes clear and no deposit is found
Method: Three commercial solvents (D100, mineral oil; 7129, 2-ethylhexyl palmitate; PARYOL TMC 810T, caprylic/capric triglyceride) and the solvents described in examples 1-4 were used. The resins of Example 1 and the chosen solvent were placed on a heating plate under magnetic stirring at 80 °C for one hour, and then allowed to cool to ambient temperature for 24 hrs. Table 1. ROSIN MODIFIED ESTER RESIN BASED PAINTS

[2] = Dynamic light scattering of 5% by weight resin solution (solvent power); assay type: physicochemical; settings: DLS
Text: A first assessment of the higher solvent power of pelargonic acid esters with respect to the classical solvents can be performed by means of the analysis of the data obtained with the dynamic light scattering technique (SMD 6000 Laser Quantum apparatus,50 mW source of light beam at 532.5 nm) carried out on the solution at 5% by weight of modified phenolic (Table 3) and Maleic (Table 4)Resin, solubilized with traditional mineral solvents (base mineral oilD100), traditional vegetal oil (RADIA 7129) and the solvents of the present invention. The DLS technique (Dynamic Light Scattering) allows to monitor the intensity depending on time of the light scattered by an object into a solution. The speed of fluctuation of the light intensity depends on the speed with which the element capable of generating such scattering moves into a solution; the latter is described by the diffusion coefficient D, which is related to the size of the particles into the solution, in particular to the hydrodynamic radius RI of a ball moving in a solvent having a viscosity η, according to the Stokes-Einstein equation: D = (kT)/(6πηRi) [formula] where k is the Boltzmann constant and T is the temperature.
The measurements of the dynamic light scattering allowed to evaluate the capacity of different solvents, used to disperse the two resins, to generate sub-micrometric aggregates: K16 and a maleic resin. This dispersion capacity is linked to the solvent capacity of individual substances. The lower is the size of aggregates, the better is the solvent power for the solute concerned. In the case of the present invention, the solvent consists of the compounds of general formula (I) and solutes are modified PHENOLIC RESINS and MALEIC RESINS. In this case, the smaller is the hydrodynamic radius, better is the solvation degree of the resin by the solvent, which is therefore better than solvents giving a lower solvation degree, and therefore a larger hydrodynamic radius relative to the same resins. The hydrodynamic radii found by DLS for the solvents used by us are the lowest compared to the other commercially available solventsstudied. The high solvent power, therefore confirmed by the hydrodynamic radius, has a huge impact on the paint final properties and on the production mode. The final properties are affected by the fact that the higher solvent power of our compounds allows to dissolve the rosin and maleic resins up to 70% by weight, and therefore allow to produce paints having a high degree of gloss and very high surface resistance, since these latter properties depend on the amount of resin that a solvent can dissolve to form a paint. In addition, the production mode of the paint was performed at 80°C instead of 200°C because our compounds are more solvent with respect to the commercially available ones and need a lower operating temperature in order to dissolve completely and appropriately the resins concerned.
Actually, in samples having a good resin dispersion, which are clear, particles with sub-micrometric size (2-300 nm) are obtained; sizes are associated with the presence of more or less large aggregates. In the extreme cases of precipitation phenomena (> 1000 nm), the sample appears cloudy, and this is associated with a very poor resin dispersion.
In our case, from the data shown in Tables 1 and 2 of Example 3 it can be clearly seen that […] for the solvents of the invention, and therefore the size of the aggregates, is considerably lower than in solvents commercially available at present for dispersing modified phenolic resins and maleic resins. […] A 5% w/w modified synthetic phenolic resin was used for the mixtures to be tested by DLS obtained industrially by esterification of rosin with pentaerythritol, and subsequent polymerization with phenol, trade name SIRIUS XVI, supplied by YSER. The Maleic Resin used is Perseus I supplied by Yser. Table 3. ROSIN MODIFIED ESTER RESIN

[3] = 5% w/w Perseus I resin in the solvent
[4] = 5% w/w SIRIUS XVI resin in the solvent

Compound | 45% resin (dissolution time at 80 °C, min) ([1]; maleic resin) [min] | 45% resin (dissolution time at 80 °C, min) ([1]; rosin modified ester resin) [min] | 55% resin (dissolution time at 80 °C, min) ([1]; maleic resin) | 55% resin (dissolution time at 80 °C, min) ([1]; rosin modified ester resin) | Hydrodynamic radius (nm) [2, 3] [nm] | Polydispersity index [2, 3] | Hydrodynamic radius (nm) [2, 4] [nm] | Polydispersity index [2, 4] | aggregate sizes ([2]; maleic resin dispersed in the solvent) | aggregate sizes ([2]; modified phenolic resin dispersed in the solvent)
CCCCCCOC(=O)CCCCC [CAOEs, hexyl caproate] | >60 | >60 | A clear solution is not obtained after 4 hrs | A clear solution is not obtained after 2 hrs | – | – | – | – | – | –
CCCCCCCCCCCC(=O)OCCCCCC [LAOEs, hexyl laurate] | >60 | >60 | A clear solution is not obtained after 2 hrs | A clear solution is not obtained after 2 hrs | – | – | – | – | – | –
CCCCCCCCOC(=O)CCCCC [CAOOt, octyl caproate] | >60 | >60 | A clear solution is not obtained after 4 hrs | A clear solution is not obtained after 2 hrs | – | – | – | – | – | –
CCCCCCCCC(=O)OCCCC [PAOBu, butylpelargonate] | 15 | 13 | 20 min | 14 min | 2.34 ± 0.8 | 0.70±0.06 | 12.9 ± 0.4 | 0.71±0.06 | – | –
CCCCCCCCC(=O)OC [PAOMe, methylpelargonate] | 10 | 15 | 15 min | 16 min | 1.7±0.6 | 0.90±0.42 | 8.9 ± 0.9 | 0.76±0.11 | – | –
CCCCCC(=O)OCC(CC)CCCC (stereo not shown) [CAOEtEs, 2-ethyl-hexyl caproate] | – | >60 | – | A clear solution is not obtained after 2 hrs | – | – | – | – | – | –
CCCCCCCCC(=O)OC(C)C [PAOiPr, isopropyl pelargonate] | 10 | 13 | 15 min | 15 min | 2.74±0.11 | 1.0±0.3 | 9.2 ± 1.3 | 0.64±0.14 | – | –
CCCCCCCCCCCC(=O)OCCCC [LAOBu, butyl laurate] | >60 | >60 | A clear solution is not obtained after 2 hrs | A clear solution is not obtained after 2 hrs | – | – | – | – | – | –
CCCCCCCCCCCCCCCC(=O)OCC(CC)CCCC (stereo not shown) [Solvent 7129, 2-ethylhexyl palmitate] | – | >60 | – | A clear solution is not obtained after 2 hrs | – | – | – | – | exceeding the limit of detectability by DLS | exceeding the limit of detectability by DLS
CCCCCCCCCCCC(=O)OCC(CC)CCCC (stereo not shown) [LAOEtEs, 2-ethyl-hexyl laurate] | >60 | >60 | A clear solution is not obtained after 2 hrs | A clear solution is not obtained after 2 hrs | – | – | – | – | – | –
CCCCCCCCCCCC(=O)OCCCCCCCC [LAOOt, octyl laurate] | >60 | >60 | A clear solution is not obtained after 2 hrs | A clear solution is not obtained after 2 hrs | – | – | – | – | – | –
CCCCCCCCCCCC(=O)OC(C)C [LAOiPr, isopropyl laurate] | >60 | >60 | A clear solution is not obtained after 2 hrs | A clear solution is not obtained after 2 hrs | – | – | – | – | – | –
CCCCCC(=O)OCCCC [CAOBu, butyl caproate] | >60 | >60 | A clear solution is not obtained after 4 hrs | A clear solution is not obtained after 2 hrs | – | – | – | – | – | –
CCCCCC(=O)OC(C)C [CAOiPr, isopropyl caproate] | >60 | >60 | A clear solution is not obtained after 4 hrs | A clear solution is not obtained after 2 hrs | – | – | – | – | – | –
CCCCCCCCC(=O)OCC(CC)CCCC (stereo not shown) [PAOEtEs, 2-ethyl-hexyl pelargonate] | 60 | 50 | Clear solution | Clear solution | – | – | – | – | – | –
